Results taken from patent US20110053160A1, “HCV NS3/4A REPLICON SHUTTLE VECTORS” (priority 2009, published 2011).
Where two headings read alike, the source gives them in different places.

Key:
[1] = tested on: HCV GT-1b Con1 replicon pPI-luc/ET/SC in cured Huh7 cells; assay: Transient replicon assay, IC50 determination (firefly luciferase reporter), parent replicon; type: cell-based; conditions: Hepatitis C virus, GT1B, Huh-7, luciferase read 72 hours after addition of inhibitor, read-out: IC50 VX-950
[2] = Transient replicon assay, IC50 determination (firefly luciferase reporter), shuttle vector replicons with patient-derived NS3/4A; type: cell-based, HCV; conditions: Hepatitis C virus, Huh-7, 72 h, luciferase read 72 hours after addition of inhibitor, read-out: IC50 VX-950
Procedure: DNA sequences encoding the NS3/4A protein were generated from plasma obtained from patients infected with HCV using reverse transcription of RNA followed by PCRamplification of the reverse-transcribed product. Reverse transcription of RNA was performed using Taqman Reverse Transcription Reagents (Applied Biosystems, Foster City, Calif., USA) using the primer, 5′-ACCAGGTCCTCSGTGGAGG-3′ (SEQ ID NO:9) and according to the manufacturers' protocol. The synthesized cDNA was then PCR-amplified with the GC RICH PCR system (Roche Applied Science) to ensure high fidelity and robust yields. Annealing temperatures in the range of 50-52° C. were used depending on patient sample and primer combinations. Two PCR reactions with two independent primer sets used for the first round PCR were as follows:
Five micrograms of DNA was linearized by Sca I restriction enzyme (Roche Applied Science). After overnight digestion at 37° C., the DNA was purified using Qiagen PCR purification kit. Eight microliters of linearized DNA was used for the in vitro transcription using T7 RiboMAX Express Large Scale RNA Production System kit following manufacturer's protocol (Promega, Madison, Wis., USA). After 2 hours of incubation at 37° C., DNase treatment was performed for 20 minutes at 37° C. to remove the DNA template. In vitro transcribed RNA was then purified using RNeasy mini kit following manufacturer's protocol (Qiagen).
Cured hepatoma cell line Huh7 was obtained from R. Bartenschlager. Cells were cultured at 37° C. in a humidified atmosphere with 5% CO2 in Dulbecco's Modified Eagle Medium (DMEM) supplemented with Glutamax and […] sodium pyruvate (Cat# 10569-010). The medium was further supplemented with 10% (v/v) FBS (Cat# 16000-036) and 1% (v/v) penicillin/streptomycin (Cat# 15140-122). All reagents were from Invitrogen.
Four million cured Huh7 cells were transfected with 10 μg of in vitro transcribed RNA using electroporation. Cells were then resuspended in 12 ml of DMEM containing 5% FBS and plated in 96-well plate at 28,800 cells/well (in 90 μl final volume) Inhibitors were added 24 hours post-transfection in 3 fold dilutions at a final DMSO concentration of 1% and firefly luciferase reporter signal was read 72 hours after addition of inhibitors using the Luciferase Assay system (Promega, cat #E1501). The IC50 values were assessed as the inhibitor concentration at which a 50% reduction in the level of firefly luciferase reporter was observed as compared to the level of firefly luciferase signal without the addition of compounds. […]

CCC[C@H](NC(=O)[C@@H]1[C@H]2CCC[C@H]2CN1C(=O)[C@@H](NC(=O)[C@@H](NC(=O)c1cnccn1)C1CCCCC1)C(C)(C)C)C(=O)C(=O)NC1CC1 [VX-950]
IC50 [1]: 253 nM
IC50 ([2]; patient isolate 34): 268 nM
IC50 ([2]; patient isolate 98): 205 nM
IC50 ([2]; patient isolate 5903): 97 nM
IC50 ([2]; patient isolate 34026): 48 nM
IC50 ([2]; patient isolate 52620): 92 nM
IC50 ([2]; patient isolate 61793): 381 nM
IC50 ([2]; patient isolate 66200): 332 nM
IC50 ([2]; patient isolate 73837-2): 228 nM
IC50 ([2]; patient isolate 135635): 394 nM
IC50 ([2]; patient isolate 135640): 385 nM
IC50 ([2]; patient isolate 135641): 175 nM
IC50 ([2]; patient isolate 135649): 108 nM
IC50 ([2]; patient isolate RO256): 93 nM
